The values below come from patent publication US20090123512A1, “Quorum Sensing Modulators” (priority 2005, published 2009).

The test system of the test is MW1. Kind of test: Elastase production in culture supernatant, MW1. The format is cell-based, Pseudomonas aeruginosa. As for the experimental part:
Elastase activity was measured according to the procedure described by Pearson et al. in J. Bacteriol. 179:5756-67 (1997) and pyocyanin concentration was measured according to the procedure described by Essar et al. in J. Bacteriol. 172:884-900 (1990). Protocols were modified slightly to be consistent with the conditions of transcriptional profiling. Cultures were grown in LB amended with 50 mM MOPS pH 7.0. Mid-log cultures were either subcultured directly (MW1) or washed twice with medium (PAO1) and then subcultured to an absorbance at 600 nm (A600) of 0.01. Cultures (1 mL) were grown in the presence of test compounds in 16 mm tubes at 37° C., 250 rpm.
For elastase activity, cultures were grown for 6 hours. Cells were removed by centrifugation and the culture supernatant filtered through a 0.2 μm filter. A 100 μL volume of filtered supernatant was added to 900 μL of 5 mg/mL Elastin Congo Red (Elastin Products Company; Owensville, Mo.) in 1 mM CaCl2, 100 mM Tris HCL, pH 7.2. Reactions were incubated at 37° C., 250 rpm for 18 h. Reactions were stopped by the addition of 100 μL 0.12 M EDTA, undigested substrate removed through centrifugation and the absorbance at 495 nm measured.

`CCCCCCCCCC(=O)CC(=O)NC1CCOC1=O` (stereo not drawn) [3-oxo-C12-HSL, 3-oxo-dodecanoyl homoserine lactone]: the “elastase activity in supernatant restored by exogenous signal” value (from here on “elastase activity”) (MW1, 0.3 μM (half-maximal) 3-oxo-C12-HSL alone) was “restored about one third of the achievable activity” and the “elastase activity” value (MW1, saturating 3-oxo-C12-HSL (25 μM) in addition to saturating C4-HSL (25 μM)) was “did not increase elastase activity further”.
For `CCCC(=O)N[C@H]1CCOC1=O` [Compound C4-HSL, butyryl homoserine lactone], the “elastase activity” value (MW1, 25 μM C4-HSL added to 0.3 μM 3-oxo-C12-HSL) is “maximal elastase activity was measured”.
